The values below come from patent US11413267B2, “Methods and compositions for inhibition of ATR and FANCD2 activation” (priority 2012, dated 2022).

Data set [1] deals with CHO cells. The data set is described as follows: In vitro chromosome aberration test. Format: cell-based, Chinese Hamster. The settings on record: for Average aberrant metaphases (%) / Chromatid break (No.) / Chromatid deletion / Complex rerrangement / Dicentric / Polyploid / Pulverized cell / Quadriradial / Ring / Triradial: Chinese hamster, 20 h. The procedure:
To test this hypothesis, we investigated the cytogenetic effect of Protoapigenone (I-1) on CHO cells (FIG. 1).
In brief, 5×10^5 Chinese Hamster Ovary (CHO) cells were seeded in 60-mm dishes 1 d before the experiment. Protoapigenone (I-1)-induced structural chromosomal changes after 20 h were compared with that of the cells cultured in 2 μM mitomycin C. At 18 h after Protoapigenone (I-1), 0.1 μg/mL colchicine was added for 2 h, and metaphase cells were collected by shaking them off the dishes. Mitotic cells were treated with 0.5% KCl for 10 min and fixed with a 3:1 mixture of methanol: glacial acetic acid. The cells were then spread on slides for chromosome staining with 5% Giemsa solution. We then analyzed the chromosome structure of 200 well-spread metaphase cells (100 metaphase cells/experiment) under a 100× oil immersion objective.

Data set [2] relates to cancer cells. The data set is described as follows: MTT cytotoxicity assay on cancer cells, 48 h. The format is cell-based, human. The settings on record: FIG. 4.

Marks after values point to notes of the source that are not given here.

`O=C1C=CC(O)(c2cc(=O)c3c(O)cc(O)cc3o2)C=C1` [Compound I-1, Protoapigenone]: in data set [1], the “Chromosomal structural changes (breakages, radials, polyploidy), in words” value is reported as “dose-dependent increases” and the “Obtaining complete mitotic chromosome” value was “complete mitotic chromosome could not be obtained”. In addition, in data set [1] (2.17 μM), the “Average aberrant metaphases (%)” value is given as 6.5 * %, the “Chromatid break (No.)” value was found to be 2 No, the Chromatid deletion worked out at 0 No and the Complex rerrangement is 0 No. In data set [1] (2.17 μM), this compound returned a Dicentric of 0 No, a Polyploid of 3 No, a Pulverized cell of 0 No and a Quadriradial of 3 No. Also, in data set [1] (2.17 μM), the Ring is reported as 1 No and the Triradial is recorded as 4 No. Further, in data set [1] (4.35 μM), the “Average aberrant metaphases (%)” value is 14.0 * %, the “Chromatid break (No.)” value is given as 1 No, the Chromatid deletion came to 1 No and the Complex rerrangement came to 0 No. In addition, in data set [1] (4.35 μM), the Dicentric worked out at 0 No, the Polyploid is given as 1 No, the Pulverized cell is 1 No and the Quadriradial worked out at 9 No. In data set [1] (4.35 μM), this compound returned a Ring of 2 No and a Triradial of 13 No.

With `O=C1C=CC(O)(c2cc(=O)c3c(ccc4ccccc43)o2)C=C1` [Compound II-1, 3-(1-hydroxy-4-oxo-cyclohexa-2,5-dienyl)-1H-benzo[f]chromen-1-one], the “Cytotoxicity, comparison” value in data set [2] is “more potent than Protoapigenone (I-1)”.
